US20250340557A1, “PYRIMIDINE DERIVATIVE” (ASKA PHARMACEUTICAL CO., LTD., priority 2022, published 2025)

Target: T1, human mPGES-1 (Homo sapiens, UniProt O14684)
T1 construct: made in house; host or cells: COS-1 cells (transient transfection; microsomal fraction used as enzyme)
T1 sequence (O14684 1-152): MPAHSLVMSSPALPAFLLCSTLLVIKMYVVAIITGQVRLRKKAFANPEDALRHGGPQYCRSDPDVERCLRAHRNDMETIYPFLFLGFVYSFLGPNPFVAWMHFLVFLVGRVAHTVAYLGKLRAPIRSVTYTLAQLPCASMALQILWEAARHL
Test: Test for mPGES-1 inhibitory activity (microsomal enzyme, PGE2 EIA)
Assay type: biochemical
Conditions: microsomes from COS-1 cells transfected with human mPGES-1 cDNA; substrate PGH2 1 μM; 4° C., 4 minutes; PGE2 measured by EIA; read-out: h mPGES1 IC50
Outline: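 Enzyme source was microsomes from COS-1 cells transiently expressing human mPGES-1, in sodium phosphate pH 7.2 with 2.5 mM GSH, 1 mM EDTA and 2% DMSO final. After a 15 min preincubation with compound at 4 °C, 1 μM PGH2 (final) reacted for 4 min at 4 °C.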

| IC50 [nM] | SMILES |
| --- | --- |
| < 1 | O=c1cc(C(F)(F)F)nc(-c2c(C(F)(F)F)ccc(CNC(=O)[C@H]3C[C@@H](OCc4ccc(Cl)cc4)C3)c2F)[nH]1 [Example 141, cis-3-[(4-chlorobenzyl)oxy]-N-{2-fluoro-3-[6-oxo-4-(trifluoromethyl)-1,6-dihydropyrimidin-2-yl]-4-(trifluoromethyl)benzyl}cyclobutane-1-carboxamide] |
| < 10 | O=c1cc(C(F)(F)F)nc(-c2c(C(F)(F)F)ccc(CNC(=O)[C@H]3C[C@H](OCc4ccccc4)C3)c2F)[nH]1 [Example 134, trans-3-(benzyloxy)-N-{2-fluoro-3-[6-oxo-4-(trifluoromethyl)-1,6-dihydropyrimidin-2-yl]-4-(trifluoromethyl)benzyl}cyclobutane-1-carboxamide] |
| < 1 | O=c1cc(C(F)F)nc(-c2c(C(F)(F)F)ccc(CNC(=O)[C@H]3CC[C@H](OCc4ccccc4Cl)CC3)c2F)[nH]1 [Example 103, trans-4-[(2-chlorobenzyl)oxy]-N-{3-[4-(difluoromethyl)-6-oxo-1,6-dihydropyrimidin-2-yl]-2-fluoro-4-(trifluoromethyl)benzyl}cyclohexane-1-carboxamide] |
| < 1 | Cc1nc(-c2c(C(F)(F)F)ccc(CNC(=O)[C@H]3CC[C@H](OCc4cccc(C(F)(F)F)c4)CC3)c2F)[nH]c(=O)c1F [Example 130, trans-N-[2-fluoro-3-(5-fluoro-4-methyl-6-oxo-1,6-dihydropyrimidin-2-yl)-4-(trifluoromethyl)benzyl]-4-{[3-(trifluoromethyl)benzyl]oxy}cyclohexane-1-carboxamide] |

The next lines start with the molecule.

| SMILES | IC50 [nM] |
| --- | --- |
| O=C(NCc1ccc(C(F)(F)F)c(-c2nc(C(F)(F)F)cc(=O)[nH]2)c1F)C1CCN(c2cccc(C(F)(F)F)n2)CC1 [Example 22, N-{2-fluoro-3-[6-oxo-4-(trifluoromethyl)-1,6-dihydropyrimidin-2-yl]-4-(trifluoromethyl)benzyl}-1-[6-(trifluoromethyl)pyridin-2-yl]piperidine-4-carboxamide] | 4.9 |
| Cc1cc(=O)[nH]c(-c2c(C(F)(F)F)ccc(CNC(=O)[C@H]3CC[C@H](OCc4cccc(Cl)c4)CC3)c2F)n1 [Example 111, trans-4-[(3-chlorobenzyl)oxy]-N-[2-fluoro-3-(4-methyl-6-oxo-1,6-dihydropyrimidin-2-yl)-4-(trifluoromethyl)benzyl]cyclohexane-1-carboxamide] | 19 |
| Cc1cc(=O)[nH]c(-c2c(C(F)(F)F)ccc(CNC(=O)[C@H]3CC[C@H](OCc4ccc(F)c(F)c4)CC3)c2F)n1 [Example 107, trans-4-[(3,4-difluorobenzyl)oxy]-N-[2-fluoro-3-(4-methyl-6-oxo-1,6-dihydropyrimidin-2-yl)-4-(trifluoromethyl)benzyl]cyclohexane-1-carboxamide] | 13 |
| O=C(NCc1ccc(C(F)(F)F)c(-c2nc(C(F)(F)F)cc(=O)[nH]2)c1F)C1CCN(c2cnc(C(F)(F)F)cn2)CC1 [Example 36, N-{2-fluoro-3-[6-oxo-4-(trifluoromethyl)-1,6-dihydropyrimidin-2-yl]-4-(trifluoromethyl)benzyl}-1-[5-(trifluoromethyl)pyrazin-2-yl]piperidine-4-carboxamide] | 14 |
| CCc1nc(-c2c(C(F)(F)F)ccc(CNC(=O)[C@H]3CC[C@H](OCc4ccc(F)cc4F)CC3)c2F)[nH]c(=O)c1F [Example 132, trans-4-[(2,4-difluorobenzyl)oxy]-N-[3-(4-ethyl-5-fluoro-6-oxo-1,6-dihydropyrimidin-2-yl)-2-fluoro-4-(trifluoromethyl)benzyl]cyclohexane-1-carboxamide] | 21 |
| O=C(NCc1ccc(C(F)(F)F)c(-c2nc(C(F)(F)F)cc(=O)[nH]2)c1F)C1CCN(c2cc(Cl)cc(Cl)c2)CC1 [Example 82, 1-(3,5-dichlorophenyl)-N-{2-fluoro-3-[6-oxo-4-(trifluoromethyl)-1,6-dihydropyrimidin-2-yl]-4-(trifluoromethyl)benzyl}piperidine-4-carboxamide] | 8.1 |
| O=C(NCc1ccc(C(F)(F)F)c(-c2nc(C(F)(F)F)cc(=O)[nH]2)c1)C1CCN(c2ccc(C(F)(F)F)cn2)CC1 [Example 50, N-{3-[6-oxo-4-(trifluoromethyl)-1,6-dihydropyrimidin-2-yl]-4-(trifluoromethyl)benzyl}-1-[5-(trifluoromethyl)pyridin-2-yl]piperidine-4-carboxamide] | < 1 |
| Cc1cc(=O)[nH]c(-c2c(C(F)(F)F)ccc(CNC(=O)[C@H]3CC[C@H](OCc4ccccc4Cl)CC3)c2F)n1 [Example 108, trans-4-[(2-chlorobenzyl)oxy]-N-[2-fluoro-3-(4-methyl-6-oxo-1,6-dihydropyrimidin-2-yl)-4-(trifluoromethyl)benzyl]cyclohexane-1-carboxamide] | 38 |
| Cc1cc(=O)[nH]c(-c2c(C(F)(F)F)ccc(CNC(=O)C3CCN(c4cccc(C(F)(F)F)c4)CC3)c2F)n1 [Example 94, N-[2-fluoro-3-(4-methyl-6-oxo-1,6-dihydropyrimidin-2-yl)-4-(trifluoromethyl)benzyl]-1-[3-(trifluoromethyl)phenyl]piperidine-4-carboxamide] | 13 |
| O=C(NCc1ccc(C(F)(F)F)c(-c2nc(C(F)(F)F)cc(=O)[nH]2)c1F)C1CCN(c2ccc(Cl)c(F)c2)CC1 [Example 81, 1-(4-chloro-3-fluorophenyl)-N-{2-fluoro-3-[6-oxo-4-(trifluoromethyl)-1,6-dihydropyrimidin-2-yl]-4-(trifluoromethyl)benzyl}piperidine-4-carboxamide] | 5 |
| Cc1cc(=O)[nH]c(-c2c(C(F)(F)F)ccc(CNC(=O)[C@H]3CC[C@H](OCc4ccc(Cl)cc4F)CC3)c2F)n1 [Example 121, trans-4-[(4-chloro-2-fluorobenzyl)oxy]-N-[2-fluoro-3-(4-methyl-6-oxo-1,6-dihydropyrimidin-2-yl)-4-(trifluoromethyl)benzyl]cyclohexane-1-carboxamide] | < 1 |

Same assay, conditions: microsomes of COS-1 cells transfected with human mPGES-1 cDNA; PGH2 1 μM; 4° C., 4 minutes; PGE2 by EIA; read-out: h mPGES1 IC50

| IC50 [nM] | SMILES |
| --- | --- |
| < 1 | Cc1cc(=O)[nH]c(-c2c(C(F)(F)F)ccc(CNC(=O)[C@H]3C[C@H](OCc4ccc(F)cc4F)C3)c2F)n1 [Example 184, trans-3-[(2,4-difluorobenzyl)oxy]-N-[2-fluoro-3-(4-methyl-6-oxo-1,6-dihydropyrimidin-2-yl)-4-(trifluoromethyl)benzyl]cyclobutane-1-carboxamide] |
| 15 | CCc1cc(=O)[nH]c(-c2c(C(F)(F)F)ccc(CNC(=O)[C@H]3C[C@H](OCc4cccc(F)c4F)C3)c2F)n1 [Example 206, trans-3-[(2,3-difluorobenzyl)oxy]-N-[3-(4-ethyl-6-oxo-1,6-dihydropyrimidin-2-yl)-2-fluoro-4-(trifluoromethyl)benzyl]cyclobutane-1-carboxamide] |
| 13 | CCc1cc(=O)[nH]c(-c2c(C(F)(F)F)ccc(CNC(=O)[C@H]3C[C@H](OCc4cc(F)cc(F)c4)C3)c2F)n1 [Example 204, trans-3-[(3,5-difluorobenzyl)oxy]-N-[3-(4-ethyl-6-oxo-1,6-dihydropyrimidin-2-yl)-2-fluoro-4-(trifluoromethyl)benzyl]cyclobutane-1-carboxamide] |
| 19 | Cc1cc(=O)[nH]c(-c2c(C(F)(F)F)ccc(CNC(=O)[C@H]3C[C@H](OCc4ccccc4C(F)(F)F)C3)c2F)n1 [Example 181, trans-N-[2-fluoro-3-(4-methyl-6-oxo-1,6-dihydropyrimidin-2-yl)-4-(trifluoromethyl)benzyl]-3-{[2-(trifluoromethyl)benzyl]oxy}cyclobutane-1-carboxamide] |
| < 1 | O=c1cc(C(F)(F)F)nc(-c2c(C(F)(F)F)ccc(CNC(=O)[C@H]3C[C@H](OCc4ccc(F)c(Cl)c4)C3)c2F)[nH]1 [Example 157, trans-3-[(3-chloro-4-fluorobenzyl)oxy]-N-{2-fluoro-3-[6-oxo-4-(trifluoromethyl)-1,6-dihydropyrimidin-2-yl]-4-(trifluoromethyl)benzyl}cyclobutane-1-carboxamide] |
| 1.3 | O=c1cc(C(F)F)nc(-c2c(C(F)(F)F)ccc(CNC(=O)[C@H]3C[C@H](OCc4cc(F)cc(F)c4)C3)c2F)[nH]1 [Example 170, trans-3-[(3,5-difluorobenzyl)oxy]-N-{3-[4-(difluoromethyl)-6-oxo-1,6-dihydropyrimidin-2-yl]-2-fluoro-4-(trifluoromethyl)benzyl}cyclobutane-1-carboxamide] |
| < 1 | CCc1nc(-c2c(C(F)(F)F)ccc(CNC(=O)[C@H]3C[C@H](OCc4ccc(F)cc4Cl)C3)c2F)[nH]c(=O)c1F [Example 241, trans-3-[(2-chloro-4-fluorobenzyl)oxy]-N-[3-(4-ethyl-5-fluoro-6-oxo-1,6-dihydropyrimidin-2-yl)-2-fluoro-4-(trifluoromethyl)benzyl]cyclobutane-1-carboxamide] |
| 0.94 | O=C(NCc1ccc(C(F)(F)F)c(-c2nc(C(F)(F)F)cc(=O)[nH]2)c1F)C1CCN(C(=O)Cc2ccc(F)cc2)CC1 [Example 275, N-{2-fluoro-3-[6-oxo-4-(trifluoromethyl)-1,6-dihydropyrimidin-2-yl]-4-(trifluoromethyl)benzyl}-1-[2-(4-fluorophenyl)acetyl]piperidine-4-carboxamide] |
| < 1 | O=c1cc(C(F)F)nc(-c2c(C(F)(F)F)ccc(CNC(=O)[C@H]3C[C@H](OCc4ccccc4C(F)(F)F)C3)c2F)[nH]1 [Example 164, trans-N-{3-[4-(difluoromethyl)-6-oxo-1,6-dihydropyrimidin-2-yl]-2-fluoro-4-(trifluoromethyl)benzyl}-3-{[2-(trifluoromethyl)benzyl]oxy}cyclobutane-1-carboxamide] |
